PubChem BioAssay AID1963837 (Molecular Pharmacology Branch, DTP, NCI, 2024)
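Throughout, for viability, T/C: spheroids exposed to drugs for seven days before readout.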

The compounds below were run on 843126-344-R-J1-PDC complex spheroid viability (assay: Anticancer human tumor 843126-344-R-J1-PDC patient-derived melanoma cell line growth inhibition [POLQ]). Conditions: curve of first compound; second compound 10 µM.
Description: Multicellular complex tumor spheroid response to Polymerase (POL) inhibitors (novobiocin, ART-558, RP6685) in combination with a variety of drugs and investigational agents in selected tumor cell lines
The POL inhibitors (novobiocin, ART-558, and RP6685) were evaluated both individually and in combination with standard of care and investigational anticancer small molecules within a complex spheroid model of solid tumors. . Complex spheroids include a stromal component modeled by human endothelial cells (HUVEC) and fibroblasts modeled by human mesenchymal stem cells (MSCs). The concentration ranges selected for each drug and investigational agent were based upon clinically achievable concentrations if the clinical Cmax of the agent was known.
Compounds. The drugs and investigational agents: novobiocin (NSC847541), ART-558 (NSC835418), RP-6685 (NSC848927), peposertib (NSC802822), ceralasertib (NSC780249), elimusertib (NSC800525), camonsertib (NSC841442), AZD-1390 (NSC803789), olaparib (NSC753686), talazoparib (NSC767125), rucaparib (NSC756644), sotorasib (NSC818433), MRTX-1133 (NSC836407), SN-38 (NSC673596), topotecan (NSC609699), epotoside (NSC141540), doxorubicin (NSC123127), gemcitabine (NSC613327), 5-fluorouracil (NSC19893), paclitaxel (NSC125973), vemurafenib (NSC761431), MSA-2 (NSC828583), SN-011 (NSC837082), adavosertib (NSC754352), prexasertib (NSC758257), carboplatin (NSC241240) and oxaliplatin (NSC266046), were obtained from the National Cancer Institute (NCI) Developmental Therapeutics Program Chemical Repository (21). The FDA-approved anticancer drug set is available from the Developmental Therapeutics Program at https://dtp.cancer.gov/organization/dscb/obtaining/. […] The stock solutions were prepared in dimethyl sulfoxide (DMSO, Sigma-Aldrich, St. Louis, MO, cat. D2650), except for the platinum compounds which were prepared in saline (Quality Biological, Gaithersburg, MD, cat. 114-055-101), at 800-fold the tested concentration and stored at -70 degrees C prior to their use. All drugs and investigational agents were tested over a range starting from a high concentration at or near the clinical Cmax and decreasing in half-log increments. If the clinical Cmax for an agent had not been determined, the highest concentration tested was 10 microM, except for SN-38, which was tested at a high concentration of 1 microM.
Cell Culture. All cells were maintained in an incubator at 37 degrees C and 5% CO2 with 95% humidity. The PDC lines were cultured according to standard operating procedures established by the NCI PDMR (https://pdmr.cancer.gov). Table 3 of the manuscript, lists the cell lines along with the number of the three cell types plated to form the mct-spheroids and media for tumor cell growth. After thawing, all PDC lines, except 997537-175-T-J1-PDC and 415267-285-R-J2-PDC, were cultured in Matrigel-coated flasks prepared with a working solution of 1X Ham's F-12 nutrient mix, without supplementation (Thermo Fisher Scientific, cat. 11765054), 100 U/mL penicillin-streptomycin (Thermo Fisher Scientific, cat. 15140122), and 2.5% Matrigel (Corning Inc., Corning, NY, cat. 354248) for the first three passages. The two PDC lines 997537-175-T-J1-PDC and 415267-285-R-J2-PDC were cultured on uncoated flasks. The 857933-349-R-J2-PDC line was cultured in 6C/Colon 1B media containing advanced DMEM/F-12 (Thermo Fisher Scientific, cat. 12634028), 10 mM HEPES (Thermo Fisher Scientific, cat. 15630080), 1X GlutaMAX supplement (Thermo Fisher Scientific, cat. 35050061), 0.1 mg/mL primocin (InvivoGen, San Diego, CA, cat. ant-pm-2), 10% defined fetal bovine serum, heat inactivated (HyClone Laboratories Inc., Logan, UT, cat. SH30070.03HI), 50% L-WRN conditioned media (ATCC, cat. CRL-3276), 1.25 mM N-Acetyl-L-cysteine (Sigma-Aldrich, cat. A9165), 10 mM nicotinamide (Sigma-Aldrich, cat. N0636), 1X B-27 supplement (Thermo Fisher Scientific, cat. 17504044), 1X N-2 supplement (Thermo Fisher Scientific, cat. […]
Compound `CC1COCCN1c1cc(C2(O)CC3CCC(C2)O3)c2cnn(-c3ccn[nH]3)c2n1` (stereo unspecified) + Cc1cccc(N(C)C(=O)C2C(O)CCN2c2nc(C)cc(C(F)(F)F)c2C#N)c1 has an IC50 of 763 nM. Compound `CC1COCCN1c1cc(C2(S(C)(=N)=O)CC2)nc(-c2ccnc3[nH]ccc23)n1` (stereo unspecified) + Cc1cccc(N(C)C(=O)C2C(O)CCN2c2nc(C)cc(C(F)(F)F)c2C#N)c1 has an IC50 of over 10000 nM. In the case of `COc1cccc(OCCCN)c1-c1cc(Nc2cnc(C#N)cn2)n[nH]1` + Cc1cccc(N(C)C(=O)C2C(O)CCN2c2nc(C)cc(C(F)(F)F)c2C#N)c1, the IC50 is reported as 81.2 nM.

Same assay, conditions: second compound 0.0316 µM; first compound 0.00316 µM; stronger effect = lower value
Compound `COc1cccc(OCCCN)c1-c1cc(Nc2cnc(C#N)cn2)n[nH]1` + Cc1cccc(N(C)C(=O)C2C(O)CCN2c2nc(C)cc(C(F)(F)F)c2C#N)c1 has a viability, T/C of 96.8%.

Same assay, conditions: second compound 0.0316 µM; first compound 0.01 µM; stronger effect = lower value
With `COc1cccc(OCCCN)c1-c1cc(Nc2cnc(C#N)cn2)n[nH]1` + Cc1cccc(N(C)C(=O)C2C(O)CCN2c2nc(C)cc(C(F)(F)F)c2C#N)c1 the viability, T/C was 75.1%.

Same assay, conditions: second compound 0.0316 µM; first compound 0.0316 µM; stronger effect = lower value
For `CC1COCCN1c1cc(-c2ccnn2C)c2ccnc(-c3ccn[nH]3)c2n1` (stereo unspecified) + Cc1cccc(N(C)C(=O)C2C(O)CCN2c2nc(C)cc(C(F)(F)F)c2C#N)c1, the viability, T/C was 85.6%. `CC1COCCN1c1cc(C2(O)CC3CCC(C2)O3)c2cnn(-c3ccn[nH]3)c2n1` (stereo unspecified) + Cc1cccc(N(C)C(=O)C2C(O)CCN2c2nc(C)cc(C(F)(F)F)c2C#N)c1 gave a viability, T/C of 95.7%. With `CC1COCCN1c1cc(C2(S(C)(=N)=O)CC2)nc(-c2ccnc3[nH]ccc23)n1` (stereo unspecified) + Cc1cccc(N(C)C(=O)C2C(O)CCN2c2nc(C)cc(C(F)(F)F)c2C#N)c1 the viability, T/C was 102%. `COc1cccc(OCCCN)c1-c1cc(Nc2cnc(C#N)cn2)n[nH]1` + Cc1cccc(N(C)C(=O)C2C(O)CCN2c2nc(C)cc(C(F)(F)F)c2C#N)c1 was tested, and the viability, T/C was 63.5%.

Same assay, conditions: second compound 0.0316 µM; first compound 0.1 µM; stronger effect = lower value
Work on `CC1COCCN1c1cc(-c2ccnn2C)c2ccnc(-c3ccn[nH]3)c2n1` (stereo unspecified) + Cc1cccc(N(C)C(=O)C2C(O)CCN2c2nc(C)cc(C(F)(F)F)c2C#N)c1 yielded a viability, T/C of 77.7%. `CC1COCCN1c1cc(C2(O)CC3CCC(C2)O3)c2cnn(-c3ccn[nH]3)c2n1` (stereo unspecified) + Cc1cccc(N(C)C(=O)C2C(O)CCN2c2nc(C)cc(C(F)(F)F)c2C#N)c1 showed a viability, T/C of 78.6%. With `CC1COCCN1c1cc(C2(S(C)(=N)=O)CC2)nc(-c2ccnc3[nH]ccc23)n1` (stereo unspecified) + Cc1cccc(N(C)C(=O)C2C(O)CCN2c2nc(C)cc(C(F)(F)F)c2C#N)c1 the viability, T/C was 80.2%. Compound `COc1cccc(OCCCN)c1-c1cc(Nc2cnc(C#N)cn2)n[nH]1` + Cc1cccc(N(C)C(=O)C2C(O)CCN2c2nc(C)cc(C(F)(F)F)c2C#N)c1 has a viability, T/C of 48.8%.

Same assay, conditions: second compound 0.0316 µM; first compound 0.316 µM; stronger effect = lower value
In the case of `CC1COCCN1c1cc(-c2ccnn2C)c2ccnc(-c3ccn[nH]3)c2n1` (stereo unspecified) + Cc1cccc(N(C)C(=O)C2C(O)CCN2c2nc(C)cc(C(F)(F)F)c2C#N)c1, the viability, T/C is reported as 63.8%. In the case of `CC1COCCN1c1cc(C2(O)CC3CCC(C2)O3)c2cnn(-c3ccn[nH]3)c2n1` (stereo unspecified) + Cc1cccc(N(C)C(=O)C2C(O)CCN2c2nc(C)cc(C(F)(F)F)c2C#N)c1, the viability, T/C is reported as 48.2%. With `CC1COCCN1c1cc(C2(S(C)(=N)=O)CC2)nc(-c2ccnc3[nH]ccc23)n1` (stereo unspecified) + Cc1cccc(N(C)C(=O)C2C(O)CCN2c2nc(C)cc(C(F)(F)F)c2C#N)c1 the viability, T/C was 74.1%. In the case of `COc1cccc(OCCCN)c1-c1cc(Nc2cnc(C#N)cn2)n[nH]1` + Cc1cccc(N(C)C(=O)C2C(O)CCN2c2nc(C)cc(C(F)(F)F)c2C#N)c1, the viability, T/C is reported as 40.5%.

Same assay, conditions: second compound 0.0316 µM; first compound 1 µM; stronger effect = lower value
`CC1COCCN1c1cc(-c2ccnn2C)c2ccnc(-c3ccn[nH]3)c2n1` (stereo unspecified) + Cc1cccc(N(C)C(=O)C2C(O)CCN2c2nc(C)cc(C(F)(F)F)c2C#N)c1 was tested, and the viability, T/C was 55.1%. Work on `CC1COCCN1c1cc(C2(O)CC3CCC(C2)O3)c2cnn(-c3ccn[nH]3)c2n1` (stereo unspecified) + Cc1cccc(N(C)C(=O)C2C(O)CCN2c2nc(C)cc(C(F)(F)F)c2C#N)c1 yielded a viability, T/C of 44.8%. `CC1COCCN1c1cc(C2(S(C)(=N)=O)CC2)nc(-c2ccnc3[nH]ccc23)n1` (stereo unspecified) + Cc1cccc(N(C)C(=O)C2C(O)CCN2c2nc(C)cc(C(F)(F)F)c2C#N)c1 showed a viability, T/C of 84.5%. `COc1cccc(OCCCN)c1-c1cc(Nc2cnc(C#N)cn2)n[nH]1` + Cc1cccc(N(C)C(=O)C2C(O)CCN2c2nc(C)cc(C(F)(F)F)c2C#N)c1 was tested, and the viability, T/C was 34.3%.
